Data taken from ChEMBL document CHEMBL5113435, “Development of an automated screen for Kv7.2 potassium channels and discovery of a new agonist chemotype” (Bioorg Med Chem Lett, 2022).

Columns and labels:
[1] = biological target: T1, Potassium voltage-gated channel subfamily KQT member 2 (Homo sapiens, UniProt O43526); conditions: filed as agonist, dose 5.0 µM
Description: Agonist activity at Kv7.2 (unknown origin) assessed as shifting of voltage dependent activation to more negative potentials at 5 uM by SyncroPatch assay

Homo sapiens [2] = organism: Homo sapiens; conditions: filed as agonist, dose 5.0 µM
Description: Agonist activity at Kv7.2 W236L mutant (unknown origin) assessed as shifting of voltage dependent activation to more negative potentials at 5 uM by SyncroPatch assay

[3] = biological target: T1, Potassium voltage-gated channel subfamily KQT member 2; experiment: Agonist activity at Kv7.2 (unknown origin) assessed as shifting of voltage dependent activation to more negative potentials by SyncroPatch assay
[4] = biological target: T2, Potassium voltage-gated channel subfamily KQT member 4 (Homo sapiens, UniProt P56696); experiment: Agonist activity at Kv7.4 (unknown origin) expressed in CHO cells co-expressing GFP; assay type: cell-based
T2 sequence (P56696 whole entry): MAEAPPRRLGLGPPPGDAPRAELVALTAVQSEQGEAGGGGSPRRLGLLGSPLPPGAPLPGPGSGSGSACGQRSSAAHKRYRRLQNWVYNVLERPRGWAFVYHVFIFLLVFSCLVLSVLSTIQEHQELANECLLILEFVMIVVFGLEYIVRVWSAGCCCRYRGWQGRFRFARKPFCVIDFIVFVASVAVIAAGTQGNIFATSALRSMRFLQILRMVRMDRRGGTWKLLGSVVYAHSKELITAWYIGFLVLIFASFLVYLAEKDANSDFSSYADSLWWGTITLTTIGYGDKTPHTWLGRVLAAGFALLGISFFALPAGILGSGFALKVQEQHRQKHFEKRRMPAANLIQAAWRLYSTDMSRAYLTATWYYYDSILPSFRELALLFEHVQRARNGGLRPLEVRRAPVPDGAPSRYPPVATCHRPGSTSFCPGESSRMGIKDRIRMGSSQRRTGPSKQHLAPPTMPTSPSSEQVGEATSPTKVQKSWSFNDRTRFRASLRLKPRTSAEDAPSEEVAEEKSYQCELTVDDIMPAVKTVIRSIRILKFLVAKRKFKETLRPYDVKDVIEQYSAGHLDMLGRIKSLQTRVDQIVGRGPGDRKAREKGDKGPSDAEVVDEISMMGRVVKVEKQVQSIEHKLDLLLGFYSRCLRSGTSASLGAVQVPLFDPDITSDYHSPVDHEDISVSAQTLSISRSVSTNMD

[5] = biological target: Potassium voltage-gated channel subfamily KQT member 5 (Homo sapiens, UniProt Q9NR82); experiment: Agonist activity at Kv7.5 (unknown origin) expressed in CHO cells co-expressing GFP; assay type: cell-based
[6] = biological target: Voltage-gated potassium channel, KQT; KCNQ2(Kv7.2)/KCNQ3(Kv7.3) (Homo sapiens, UniProt O43525+O43526); experiment: Agonist activity at Kv7.2/3 (unknown origin) expressed in CHO cells co-expressing GFP; assay type: cell-based
Homo sapiens [7] = organism: Homo sapiens; experiment: Selectivity index, ratio of EC50 for agonist activity at Kv7.5 (unknown origin) expressed in CHO cells co-expressing GFP to EC50 for agonist activity at Kv7.2/3 (unknown origin) expressed in CHO cells co-expressing GFP; assay type: cell-based
Homo sapiens [8] = organism: Homo sapiens; experiment: Selectivity index, ratio of EC50 for agonist activity at Kv7.4 (unknown origin) expressed in CHO cells co-expressing GFP to EC50 for agonist activity at Kv7.2/3 (unknown origin) expressed in CHO cells co-expressing GFP; assay type: cell-based

Chain of Potassium voltage-gated channel subfamily KQT member 5 (Q9NR82 whole entry): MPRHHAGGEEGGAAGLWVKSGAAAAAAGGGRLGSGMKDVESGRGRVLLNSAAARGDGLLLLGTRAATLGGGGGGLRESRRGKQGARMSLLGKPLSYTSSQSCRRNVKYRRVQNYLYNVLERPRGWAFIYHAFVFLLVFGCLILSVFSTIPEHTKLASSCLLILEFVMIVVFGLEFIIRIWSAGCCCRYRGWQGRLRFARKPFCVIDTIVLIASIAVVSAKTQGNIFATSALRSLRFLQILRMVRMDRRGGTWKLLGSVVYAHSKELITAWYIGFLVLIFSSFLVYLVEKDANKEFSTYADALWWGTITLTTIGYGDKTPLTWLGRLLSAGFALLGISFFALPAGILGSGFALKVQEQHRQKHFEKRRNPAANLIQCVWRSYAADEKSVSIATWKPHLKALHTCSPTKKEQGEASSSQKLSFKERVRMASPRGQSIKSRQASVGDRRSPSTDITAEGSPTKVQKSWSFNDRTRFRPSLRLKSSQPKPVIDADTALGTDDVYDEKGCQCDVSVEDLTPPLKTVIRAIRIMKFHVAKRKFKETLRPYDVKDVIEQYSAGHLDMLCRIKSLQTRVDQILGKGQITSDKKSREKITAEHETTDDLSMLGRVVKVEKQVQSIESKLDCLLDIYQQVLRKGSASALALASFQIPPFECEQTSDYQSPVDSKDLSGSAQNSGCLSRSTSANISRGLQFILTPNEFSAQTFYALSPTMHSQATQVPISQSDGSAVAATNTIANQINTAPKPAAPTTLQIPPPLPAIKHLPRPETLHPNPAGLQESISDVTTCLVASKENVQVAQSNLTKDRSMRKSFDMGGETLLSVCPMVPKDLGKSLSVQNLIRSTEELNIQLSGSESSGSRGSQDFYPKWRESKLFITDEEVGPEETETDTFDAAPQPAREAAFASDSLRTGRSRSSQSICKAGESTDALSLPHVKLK
T1 sequence (O43526 whole entry): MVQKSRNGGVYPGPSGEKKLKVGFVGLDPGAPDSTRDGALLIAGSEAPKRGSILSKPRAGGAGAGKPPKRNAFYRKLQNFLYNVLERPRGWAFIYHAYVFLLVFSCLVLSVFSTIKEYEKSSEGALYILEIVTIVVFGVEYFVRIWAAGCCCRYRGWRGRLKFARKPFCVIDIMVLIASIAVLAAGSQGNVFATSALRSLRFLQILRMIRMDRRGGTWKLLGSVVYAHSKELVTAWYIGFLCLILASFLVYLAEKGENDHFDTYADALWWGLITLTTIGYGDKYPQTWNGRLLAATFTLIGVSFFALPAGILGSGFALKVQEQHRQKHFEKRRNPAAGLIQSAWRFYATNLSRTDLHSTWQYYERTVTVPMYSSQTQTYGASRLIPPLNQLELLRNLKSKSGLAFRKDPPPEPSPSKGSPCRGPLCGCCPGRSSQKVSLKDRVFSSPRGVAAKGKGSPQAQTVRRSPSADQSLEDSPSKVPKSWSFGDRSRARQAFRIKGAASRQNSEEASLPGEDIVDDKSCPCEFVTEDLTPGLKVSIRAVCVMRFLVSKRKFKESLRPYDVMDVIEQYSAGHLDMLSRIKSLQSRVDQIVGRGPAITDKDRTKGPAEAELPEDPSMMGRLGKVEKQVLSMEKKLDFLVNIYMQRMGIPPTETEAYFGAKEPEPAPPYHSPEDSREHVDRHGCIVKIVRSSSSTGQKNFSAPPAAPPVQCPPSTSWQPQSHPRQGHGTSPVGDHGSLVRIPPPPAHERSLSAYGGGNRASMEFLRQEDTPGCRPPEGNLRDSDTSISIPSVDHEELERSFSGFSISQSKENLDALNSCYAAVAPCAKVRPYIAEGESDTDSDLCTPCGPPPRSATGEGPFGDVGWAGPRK
Chain of Voltage-gated potassium channel, KQT; KCNQ2(Kv7.2)/KCNQ3(Kv7.3) (O43526 whole entry): as above
Chain of Voltage-gated potassium channel, KQT; KCNQ2(Kv7.2)/KCNQ3(Kv7.3) (O43525 whole entry): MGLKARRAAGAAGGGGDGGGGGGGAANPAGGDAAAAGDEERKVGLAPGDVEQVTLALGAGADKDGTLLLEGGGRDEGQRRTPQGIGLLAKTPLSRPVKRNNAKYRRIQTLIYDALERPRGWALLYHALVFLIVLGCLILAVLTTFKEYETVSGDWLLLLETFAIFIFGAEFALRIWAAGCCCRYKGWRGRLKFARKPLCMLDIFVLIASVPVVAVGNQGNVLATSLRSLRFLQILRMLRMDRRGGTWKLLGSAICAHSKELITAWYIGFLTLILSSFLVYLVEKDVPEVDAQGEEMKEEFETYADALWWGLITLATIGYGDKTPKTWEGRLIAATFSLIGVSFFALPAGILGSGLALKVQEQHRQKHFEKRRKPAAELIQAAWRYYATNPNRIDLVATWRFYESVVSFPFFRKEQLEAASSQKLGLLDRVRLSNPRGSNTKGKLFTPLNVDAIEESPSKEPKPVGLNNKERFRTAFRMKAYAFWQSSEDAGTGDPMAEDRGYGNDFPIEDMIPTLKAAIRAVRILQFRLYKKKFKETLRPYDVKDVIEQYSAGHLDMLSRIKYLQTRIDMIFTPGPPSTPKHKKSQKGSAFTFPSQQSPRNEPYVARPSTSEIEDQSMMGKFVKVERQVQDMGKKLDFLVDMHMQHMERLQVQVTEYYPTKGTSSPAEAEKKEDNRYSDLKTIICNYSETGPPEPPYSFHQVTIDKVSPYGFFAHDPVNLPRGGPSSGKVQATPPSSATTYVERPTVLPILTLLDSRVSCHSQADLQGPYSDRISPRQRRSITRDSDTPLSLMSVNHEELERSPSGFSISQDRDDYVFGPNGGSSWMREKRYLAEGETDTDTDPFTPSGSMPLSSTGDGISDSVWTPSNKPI

Question: Which V1/2 [1] does the source give for COc1ccc2c(c1)[C@@H](NC(C)=O)[C@H](C)[C@@H](c1ccccc1)N2C(=O)Nc1ccc(C(F)(F)F)cc1 here?
Answer: 10 mV

Question: What about the V1/2 (Homo sapiens [2]) of the same compound?
Answer: -2.7 mV

Question: How did the V1/2 [1] turn out when O=C(Nc1ccc2[nH]c(-c3ccc(C(F)(F)F)cc3)cc2c1)OC1CC1 was run?
Answer: 6.2 mV

Question: And the V1/2 (Homo sapiens [2])?
Answer: 4.7 mV

Question: Which results are given for O=C(Cc1cc(F)cc(F)c1)Nc1ccc2[nH]c(-c3ccc(C(F)(F)F)cc3)cc2c1?
Answer: V1/2 [1]: -1.1 mV; V1/2 (Homo sapiens [2]): 2.4 mV

Question: Which V1/2 [1] does the source give for CCOC(=O)Nc1ccc(NCc2ccc(F)cc2)cc1N [EZOGABINE] here?
Answer: -34.3 mV

Question: And the EC50 [3]?
Answer: 4210 nM

Question: What about the V1/2 (Homo sapiens [2]) of the same compound?
Answer: 4.2 mV

Question: CCOC(=O)Nc1cc(F)c2c(c1N)S(=O)(=O)CC(c1ccccc1)N2 (stereo unspecified) was tested. Which V1/2 [1] did it give?
Answer: 4.4 mV

Question: And the V1/2 (Homo sapiens [2])?
Answer: 2.8 mV

Question: How did the EC50 [4] turn out when Nc1c(F)c(NCc2ncc(C(F)(F)F)cc2F)c(F)c(F)c1NC(=O)OC1CC1 was run?
Answer: 320 nM

Question: And the EC50 [5]?
Answer: 3780 nM

Question: For CCOC(=O)Nc1ccc(NCc2ccc(C(F)(F)F)nc2)c(F)c1N, which EC50 [6] is on record?
Answer: 3360 nM

Question: And the EC50 [4]?
Answer: 660 nM

Question: What about the EC50 [5] of the same compound?
Answer: 540 nM

Question: CCOC(=O)Nc1ccc(NCc2ccc(C(F)(F)F)cc2)c(F)c1N was tested. Which V1/2 [1] did it give?
Answer: -48.1 mV

Question: What about the V1/2 ([1]; tested as the 2H-labelled form) of the same compound?
Answer: -45.2 mV

Question: What about the V1/2 (Homo sapiens [2]) of the same compound?
Answer: 1.9 mV

Question: What about the V1/2 (Homo sapiens [2]; tested as the 2H-labelled form) of the same compound?
Answer: -4.4 mV

Question: How did the V1/2 [1] turn out when CC[C@H]1Nc2ccc(OC)cc2[C@@H](NS(C)(=O)=O)[C@@H]1C was run?
Answer: -3 mV

Question: What about the V1/2 (Homo sapiens [2]) of the same compound?
Answer: 2.8 mV

Question: Which results are given for CCOC(=O)Nc1cc(F)c(NCc2ccc(C(F)(F)F)cc2)c(F)c1N?
Answer: EC50 [4]: 87 nM; EC50 [5]: 1060 nM

Question: Which V1/2 [1] does the source give for CC(C)(C)CC(=O)Nc1ccc2[nH]c(-c3ccc(C(F)(F)F)cc3)cc2c1 here?
Answer: -4.1 mV

Question: And the V1/2 (Homo sapiens [2])?
Answer: 3.2 mV

Question: What does the source list for CCOC(=O)Nc1ccc(NCc2ccc(F)cc2)nc1N?
Answer: V1/2 [1]: -23.8 mV; V1/2 (Homo sapiens [2]): 1.2 mV

Question: How did the V1/2 [1] turn out when CC(C)OC(=O)Nc1ccc2[nH]c(-c3ccc(C(F)(F)F)cc3)cc2c1 was run?
Answer: -3.2 mV

Question: And the V1/2 (Homo sapiens [2])?
Answer: -0.31 mV

Question: What does the source list for O=C(Cc1ccc(OC(F)(F)F)cc1)Nc1ccc2[nH]c(-c3ccc(C(F)(F)F)cc3)cc2c1?
Answer: V1/2 [1]: -8.9 mV; V1/2 (Homo sapiens [2]): 3.9 mV

Question: What does the source list for COc1ccc2c(c1)[C@@H](NC(=O)OCc1ccccc1)[C@H](C)[C@@H](c1ccccc1)N2C(=O)NC(C)C?
Answer: V1/2 [1]: 6.2 mV; V1/2 (Homo sapiens [2]): 4.9 mV

Question: Nc1c(NC(=O)OC2CC2)ccc(NCc2ccc(C(F)(F)F)cc2)c1F was tested. Which V1/2 [1] did it give?
Answer: -44.9 mV

Question: What about the EC50 [6] of the same compound?
Answer: 18 nM

Question: What about the EC50 [4] of the same compound?
Answer: 910 nM

Question: What about the EC50 [5] of the same compound?
Answer: 3780 nM

Question: What about the EC50 [3] of the same compound?
Answer: 3030 nM

Question: And the Ratio EC50 (Homo sapiens [7])?
Answer: 50

Question: What about the Ratio EC50 (Homo sapiens [8]) of the same compound?
Answer: 50

Question: And the V1/2 (Homo sapiens [2])?
Answer: -9.3 mV

Question: With COc1ccc(CNc2cc3ccccc3c(=O)[nH]2)cc1 as the compound, how does the V1/2 [1] read?
Answer: -3 mV

Question: And the V1/2 (Homo sapiens [2])?
Answer: 1.3 mV

Question: With COc1ccc2c(c1)[C@@H](NC(C)=O)[C@H](C)[C@@H](c1ccccc1)N2C(C)=O as the compound, how does the V1/2 [1] read?
Answer: 2.5 mV

Question: And the V1/2 (Homo sapiens [2])?
Answer: 0.26 mV

Question: How did the EC50 [3] turn out when [2H]c1cc(NC(=O)OCC)c(N)c(F)c1NCc1ccc(C(F)(F)F)cc1 was run?
Answer: 980 nM

Question: With CCOC(=O)Nc1ccc2[nH]c(-c3ccc(C(F)(F)F)cc3)cc2c1 as the compound, how does the V1/2 [1] read?
Answer: -4.8 mV

Question: What about the V1/2 (Homo sapiens [2]) of the same compound?
Answer: -6 mV

Question: For CCOC(=O)Nc1ccc2[nH]c(-c3ccc(F)cc3)cc2c1, which V1/2 [1] is on record?
Answer: -0.66 mV

Question: And the V1/2 (Homo sapiens [2])?
Answer: 2.5 mV
